This note sets out measurements from PMC4593063 (Bioorganic & medicinal chemistry letters, 2015).

A short description of data set [1]: 19F NMR hydration study in aqueous solution. In kind it is physicochemical. Particulars: pH 7.7, 24 h.
A further data set has as its target WT AgAChE (Anopheles gambiae, UniProt Q869C3). Nature of the data set: modified Ellman assay, WT AgAChE inhibition. Format: biochemical. For orientation: In Ellman's method for cholinesterases, released thiocholine reacts with DTNB.
Data set [2] has as its system G119S AgAChE. In kind it is biochemical, Anopheles gambiae. Particulars: 5g: 60 min incubation; dichlorvos: time not stated.
In data set [3] the test system is susceptible (G3) strain adult An. gambiae. Nature of the data set: tarsal contact toxicity, WHO treated paper protocol. Format: in vivo, Anopheles gambiae. Particulars: 40% mortality at 1000 μg/mL vs propoxur LC50 39 μg/mL.
Data set [4] is described as follows: evaporative weight loss at room temperature. Format: physicochemical. Particulars: open 1 dram vial, fume hood.
Data set [5] deals with An. gambiae. Nature of the data set: fumigation toxicity assay. Details: species or system Anopheles gambiae. Conditions: in vivo.
Data set [6] deals with An. gambiae. Description: injection toxicity. Format: in vivo, Anopheles gambiae. Conditions: injection into mosquito thorax.
The target in data set [7] is G119S AgAChE (Anopheles gambiae, UniProt Q869C3, G280S). In kind it is biochemical. Particulars: 60 min incubation.

Each structure is given as a SMILES string.

Regarding `CC(C)(C)c1cccc(C(=O)C(F)(F)F)c1` [Compound 5c], the “% hydrated (19F NMR)” value in data set [1] is recorded as 88%.

On to `CCC(CC)n1cc(C(=O)C(F)(F)F)cn1` [Compound 5g], for which the “potency at WT AgAChE fold greater than dichlorvos” value on WT AgAChE is 100 fold. Moreover, the “ratio of G119S and WT AgAChE IC50 values” with G119S AgAChE [2] is reported as “roughly 2,500 fold”. Also, the “tarsal contact toxicity fold lower relative to propoxur” value in data set [3] is given as ~ 25 fold. Also, the “% mass lost by evaporation” value in data set [4] (1 day) is reported as 9 ± 1%; in data set [4] (6 days), 33 ± 1%; in data set [4] (12 days), 68 ± 1%; in data set [4] (28 days), 99 ± 1%. Moreover, the “fumigation toxicity fold less than dichlorvos” value in the data set on An. gambiae [5] is greater than 100 fold. Further, the “Injection mortality at 50 ng/insect” value with An. gambiae [6] stood at 83 ± 6%. Also, the “% hydrated (19F NMR)” value in data set [1] amounted to 67%.

As for `CCC(CC)n1cc(C(=O)C(F)F)cn1` [Compound 9g], at WT AgAChE (incubation time not specified), the “WT AgAChE inhibition (IC50) as summarised in text” value is reported as “single digit nanomolar”. Also, at G119S AgAChE [7], the “G119S AgAChE IC50 fold lower than that of dichlorvos” value is 2 fold and the “G119S AgAChE IC50 fold lower than that of trifluoromethyl ketone 5g” value is 13 fold. Besides, in the data set with An. gambiae [6], the “Injection mortality at 50 ng/insect” value was 65 ± 4%.

For the molecule `CC(C)Cn1cc(C(=O)C(F)F)cn1` [Compound 9i], the “% hydrated (19F NMR)” value in data set [1] was determined as 22%.

For the molecule `CCC(CC)n1cc(C(=O)CF)cn1` [Compound 10g], on WT AgAChE (10 minute incubation time), the “WT AgAChE IC50 fold higher than that of propoxur” value is reported as “roughly 2 fold”. The “Injection mortality at 50 ng/insect” value in the data set on An. gambiae [6] is 21 ± 8%.

Consider `CC(C)Cn1cc(C(=O)CF)cn1` [Compound 10i], for which, in data set [1], the “% hydrated (19F NMR)” value is recorded as less than 5%.

For `COP(=O)(OC)OC=C(Cl)Cl` [dichlorvos], the “% mass lost by evaporation” value in data set [4] (1 day) is 2 ± 1%; in data set [4] (6 days), 16 ± 1%; in data set [4] (12 days), 32 ± 1%; in data set [4] (28 days) it was 51 ± 1%.

With `CNC(=O)Oc1ccccc1OC(C)C` [propoxur], the “% mass lost by evaporation” value is 0 ±1% in data set [4] (1 day), 0 ± 1% in data set [4] (6 days) and 1 ± 1% in data set [4] (12 days). Moreover, the “Injection LD50” value in the data set on An. gambiae [6] (95% confidence interval in parenthesis) is recorded as 0.24 (0.20–0.34) ng/insect.
